Starred links: 1 amine or outer side, 2 acyl side, 3 side chain; linkers in the order of their positions; H or OH if unused. Positions of bridges follow the written chain, without caps; N, C: chain ends. Residues, ends and D or L forms follow the SMILES beside them. TBMB = c1c(C[*:1])cc(C[*:3])cc1C[*:2]
Columns and labels:
[1] = biological target: T1, human Transferrin Receptor (Homo sapiens, UniProt P02786); experiment: Biolayer interferometry with immobilized extracellular domain of the receptor; details: biotinylated hTfR on streptavidin biosensors, Octet R2, 25 °C, 10 mM HEPES pH 7.4, 150 mM NaCl, 0.05 % Tween-20, 1 mg/mL BSA; peptide 11.1, 33.3, 100 µM; 1:1 binding model; read-out: KD, binding to immobilized human TfR
T1 construct: purchased Acro Biosystems TFR-H82E5
T1 sequence (P02786 89-760 limits assumed): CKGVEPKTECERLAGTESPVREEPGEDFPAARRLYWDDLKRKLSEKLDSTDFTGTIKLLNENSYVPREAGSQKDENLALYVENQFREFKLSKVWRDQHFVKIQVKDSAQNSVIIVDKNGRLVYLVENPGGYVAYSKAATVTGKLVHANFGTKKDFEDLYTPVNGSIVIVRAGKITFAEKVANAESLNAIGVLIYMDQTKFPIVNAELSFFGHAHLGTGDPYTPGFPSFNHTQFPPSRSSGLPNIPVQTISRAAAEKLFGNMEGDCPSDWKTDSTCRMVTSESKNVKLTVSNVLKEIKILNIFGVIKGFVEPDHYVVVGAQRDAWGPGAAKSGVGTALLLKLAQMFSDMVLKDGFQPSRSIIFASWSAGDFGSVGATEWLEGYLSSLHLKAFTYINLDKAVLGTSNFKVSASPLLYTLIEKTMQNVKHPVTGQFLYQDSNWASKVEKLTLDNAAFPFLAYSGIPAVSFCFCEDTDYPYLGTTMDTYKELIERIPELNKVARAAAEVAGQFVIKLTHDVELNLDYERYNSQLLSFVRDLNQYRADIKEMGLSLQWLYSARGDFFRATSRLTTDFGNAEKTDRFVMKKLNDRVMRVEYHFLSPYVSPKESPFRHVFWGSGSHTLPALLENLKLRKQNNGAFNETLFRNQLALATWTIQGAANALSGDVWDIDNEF
Description: Biophysical characterization
Binding assays were performed on an Octet R2 (Sartorious) using streptavidin-coated biosensors (SA biosensors, 18-5019). Biosensors were equilibrated for at least 10 min in binding buffer (10 mM HEPES pH 7.4, 150 mM NaCl, 0.05 % Tween-20, 1 mg/mL BSA).
Experiments were designed and executed from the Octet BLI Discovery 13.0 software. The biotinylated human Transferrin Receptor (TFR-H82E5, Acro Biosystems) was immobilized onto the biosensor by dipping the sensors into a solution of 1 µg/mL hTfR for 500 s, followed by dipping the sensor into a fresh solution of binding buffer to stablish a baseline for 200 s.
Titrations were executed at 25 °C while rotating at 1000 rpm. In the association phase, the sensors were dipped into a solution containing the peptides at several concentrations in binding buffer for 150 s. After reaching equilibrium, the biosensors were dipped into fresh binding solution to monitor the dissociation kinetics for 200 s. Kinetic data were collected and processed using a 1:1 binding model to obtain the affinity constants using the Octet Analysis […]
Unpaired two-tailed student t tests were applied to evaluate the significant difference or p values between data sets using Prism 6.0c software.
1. C. Heinis, T. Rutherford, S. Freund and G. Winter, Nat Chem Biol, 2009, 5, 502–507.
2. […]

HeLa cells (TfR1+) = HeLa cells (TfR1+) (Homo sapiens, UniProt P02786); experiment: Cell binding assay of sCy5-labelled peptides to HeLa cells by flow cytometry; type: cell-based; details: 5 to 600 nM, 4 °C, 1 hour, geometric mean vs concentration
Chain of HeLa cells (TfR1+) (P02786 whole entry): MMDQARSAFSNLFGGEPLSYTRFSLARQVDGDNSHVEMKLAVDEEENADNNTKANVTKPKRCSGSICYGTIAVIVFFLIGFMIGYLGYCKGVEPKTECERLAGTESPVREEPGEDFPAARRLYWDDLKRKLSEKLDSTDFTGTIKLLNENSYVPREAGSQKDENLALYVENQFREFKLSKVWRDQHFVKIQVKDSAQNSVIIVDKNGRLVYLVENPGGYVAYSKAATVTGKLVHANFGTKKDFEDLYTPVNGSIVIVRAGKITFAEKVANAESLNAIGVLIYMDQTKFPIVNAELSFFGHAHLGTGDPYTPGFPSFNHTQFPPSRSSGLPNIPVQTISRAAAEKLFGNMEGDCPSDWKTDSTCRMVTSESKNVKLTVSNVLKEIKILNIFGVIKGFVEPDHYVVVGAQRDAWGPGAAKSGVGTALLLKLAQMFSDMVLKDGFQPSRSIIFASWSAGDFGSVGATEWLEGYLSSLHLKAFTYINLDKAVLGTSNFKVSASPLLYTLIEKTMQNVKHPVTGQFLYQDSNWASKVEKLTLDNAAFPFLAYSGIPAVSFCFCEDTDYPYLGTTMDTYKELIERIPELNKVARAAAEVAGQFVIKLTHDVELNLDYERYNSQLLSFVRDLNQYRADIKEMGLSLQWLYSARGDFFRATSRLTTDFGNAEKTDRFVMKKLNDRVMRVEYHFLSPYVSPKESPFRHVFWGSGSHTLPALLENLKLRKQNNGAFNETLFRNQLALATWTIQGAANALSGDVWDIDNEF
Description: HeLa cells were cultured in DMEM media (1000 mg/L glucose) supplemented with 10% fetal bovine serum (FBS), 1% of 2 mM L -glutamine and 1% antibiotics (100 units/mL of penicillin and 100 µg/mL of streptomycin). Cells were expanded at 80% confluence and grown at 37°C with 5% CO2. All work performed with human cells follow the ethical principles and EU […]
Cell transfection of HeLa cells to express higher levels of TfR1
In a 96-well plate, 10,000 HeLa cells per well were seeded and left to grow for 24 h. A mixture of Lipofectamine 3000 (0.1 µL/well, Lipofectamine™ 3000 Transfection Reagent, ThermoFisher Scientific ), P3000 Reagent (0.2 µL/well) and the DNA pTfR-mNeonGreen (Plasmid #129608, Addgene) (100 ng/well ) in Opti-MEM medium was prepared. The mixture was incubated for 15 mi n, added to the cells, and incubated for 48 h.
48-hour post-transfection, 50 μl of the sulfo-Cy5-labelled peptides were added to each well at the appropriate concentration (from 5 to 600 nM) and incubated at 4°C for 1 hour. Cells were washed three times with 100 μL of PBS, trypsinized with 25 μl of trypsin for 5 min at 37°C and, then 75 μL of supplemented medium with formalin (33% v/v) was added. Cells were detached by repeated pipetting and analysed using an Agilent NovoCyteflow cytometer (Agilent). sCy5 was analysed at 640 nm while mNeon-Green at 488 nm. Data was analysed by plotting the geometric mean vs the concentration of the peptide. […]

[2] = Peptide stability in human serum; type: in vitro ADME; details: peptide 100 µM, 37 °C, aliquots 0 min to 48 h, MeOH protein precipitation, % intact peptide by UHPLC-UV, confirmed with mass spectrometry
Description: Peptide stability in human serum
Peptides were dissolved in human serum at a final concentration of 100 µM and then incubated at 37 °C. Aliquots of 50 µL were taken at different times (0 min, 15 min, 30 min, 1 h, 2 h, 4 h, 6 h, 24 h and 48 h) and flash frozen with acetone/solid CO 2. Samples were treated with 200 µL of MeOH to precipitate serum proteins. Samples for U HPLC analysis were centrifuged and filtered through a 0.22 µm filter before injection. Aliquots were analysed with UHPLC-UV (flow = 0.61 mL/min; gradient 5 -95% MeCN (0.036% TFA) in water (0.045% TFA) in 2 minutes). The amount of peptide remaining was calculated by comparing the area under the curve of the several samples. […]

[3] = system: human brain endothelial cells monolayer (BBB model); experiment: Permeability assay in the in vitro BBB cellular model (human brain-like endothelial cells on Transwell); type: in vitro ADME; details: human cell-based BBB model
Description: 48-hour post-transfection, 50 μl of the sulfo-Cy5-labelled peptides were added to each well at the appropriate concentration (from 5 to 600 nM) and incubated at 4°C for 1 hour. Cells were washed three times with 100 μL of PBS, trypsinized with 25 μl of trypsin for 5 min at 37°C and, then 75 μL of supplemented medium with formalin (33% v/v) was added. Cells were detached by repeated pipetting and analysed using an Agilent NovoCyteflow cytometer (Agilent). sCy5 was analysed at 640 nm while mNeon-Green at 488 nm. Data was analysed by plotting the geometric mean vs the concentration of the peptide.
Permeability assays in the in vitro BBB cellular model […]
the compound in Ringer HEPES was added to the donor compartment and 1500 µL of Ringer HEPES was introduced into the acceptor compartment. The plates were incubated for 2 h at 37 °C, and the solutions from both compartments were recovered and analysed. The samples were evaluated in triplicates. The amount of protein conjugates was quantified by fluorescence with Fluorescence Spectrophotometer F2500 HITACHI. […] The voltage for the detector was 700 V. Apparent permeability was calculated with the following formula: […]

Kd [1] [nM]	App. Kd, association to HeLa cells (TfR1+) (HeLa cells (TfR1+))	half-life at 100 µM [2] [h]	Fold increase in the transport of GFP on conjugation to the shuttle ([3]; GFP conjugate vs GFP) [fold]	Fold increase in the transport of the scFv on conjugation to the shuttle ([3]; sCy5-labelled scFv conjugate vs scFv) [fold]	App. Kd, association to HeLa cells (TfR1+) (HeLa cells (TfR1+); listed as BB4) [nM]	Compound
–	roughly 40 nM	5.5 ± 2.5	4	5	37 ± 2	CC(C)[C@@H]1NC(=O)[C@@H](N)CSCc2cc3cc(c2)CSC[C@H](NC(=O)[C@H](CC(=O)O)NC(=O)[C@H](Cc2c[nH]c4ccccc24)NC(=O)[C@H](Cc2c[nH]cn2)NC1=O)C(=O)N[C@@H](CCCNC(=N)N)C(=O)N[C@@H](CCC(N)=O)C(=O)N[C@@H](Cc1c[nH]c2ccccc12)C(=O)N[C@H](C(N)=O)CSC3 [BrainBike-4] (H-CVHWDCRQWC-NH2; linker 1-6-10 via TBMB)
–	250 ± 5 nM	4.8 ± 0.6	–	–	–	CC(C)[C@@H]1NC(=O)[C@@H](N)CSCc2cc3cc(c2)CSC[C@H](NC(=O)[C@H](CCCNC(=N)N)NC(=O)[C@H](Cc2ccccc2)NC(=O)[C@H](CC(=O)O)NC(=O)[C@H](Cc2c[nH]c4ccccc24)NC(=O)[C@H](Cc2c[nH]cn2)NC1=O)C(=O)N[C@@H](CCC(N)=O)C(=O)N[C@@H](Cc1c[nH]c2ccccc12)C(=O)N[C@@H](Cc1c[nH]c2ccccc12)C(=O)N[C@@H](CCC(N)=O)C(=O)N1CCC[C@H]1C(=O)N[C@@H](CO)C(=O)N[C@H](C(N)=O)CSC3 [BrainBike-3] (H-CVHWDFRCQWWQPSC-NH2; linker 1-8-15 via TBMB)

More lines, now with the values behind:

Compound	Kd [1] [nM]	App. Kd, association to HeLa cells (TfR1+) (HeLa cells (TfR1+))	half-life at 100 µM [2] [h]	Fold increase in the transport of GFP on conjugation to the shuttle ([3]; GFP conjugate vs GFP) [fold]	Fold increase in the transport of the scFv on conjugation to the shuttle ([3]; sCy5-labelled scFv conjugate vs scFv) [fold]	App. Kd, association to HeLa cells (TfR1+) (HeLa cells (TfR1+); listed as BB4) [nM]
H-GVHWDFRQWWQPS-NH2 [Y1, reference compound]	> 100000	270 ± 5 nM	1.8 ± 0.5	–	–	–
CC(C)[C@@H]1NC(=O)[C@@H](N)CSCc2cc3cc(c2)CSC[C@H](NC(=O)[C@H](Cc2c[nH]c4ccccc24)NC(=O)[C@H](CCC(N)=O)NC(=O)[C@H](CCCNC(=N)N)NC(=O)[C@H](Cc2ccccc2)NC(=O)[C@H](CC(=O)O)NC(=O)[C@H](Cc2c[nH]c4ccccc24)NC(=O)[C@H](Cc2c[nH]cn2)NC1=O)C(=O)N[C@@H](CCC(N)=O)C(=O)N1CCC[C@H]1C(=O)N[C@@H](CO)C(=O)N[C@H](C(N)=O)CSC3 [BrainBike-2] (H-CVHWDFRQWCQPSC-NH2; linker 1-10-14 via TBMB)	–	120 ± 15 nM	3.5 ± 0.3	–	–	–
CC(C)[C@@H]1NC(=O)[C@@H](N)CSCc2cc3cc(c2)CSC[C@H](NC(=O)[C@H](CC(=O)O)NC(=O)[C@H](Cc2c[nH]c4ccccc24)NC(=O)[C@H](Cc2c[nH]cn2)NC1=O)C(=O)N[C@@H](CCCNC(=N)N)C(=O)N[C@@H](CCC(N)=O)C(=O)N[C@@H](Cc1c[nH]c2ccccc12)C(=O)N[C@@H](Cc1c[nH]c2ccccc12)C(=O)N[C@@H](CCC(N)=O)C(=O)N1CCC[C@H]1C(=O)N[C@@H](CO)C(=O)N[C@H](C(N)=O)CSC3 [BrainBike-1] (H-CVHWDCRQWWQPSC-NH2; linker 1-6-14 via TBMB)	–	> 400 nM	7.7 ± 1.9	–	–	–

From article PMC10763564, “BrainBike peptidomimetic enables efficient transport of proteins across brain endothelium” (RSC Chemical Biology, 2023)
